Data on two molecules can be found in US20250042847A1, “SUBSTITUTED PHENYLPROPIONIC ACID DERIVATIVE AND USE THEREOF” (TUOJIE BIOTECH (SHANGHAI) CO., LTD., priority 2021, published 2025).

Data set [1] concerns the target Apo(a) and ApoB protein assembly (Homo sapiens (Human), UniProt P08519). Description: Test for activity of compounds in inhibiting Lp(a) assembly (double antibody ELISA). The data set is classed as biochemical. The following applies: plasma from human transgenic hApo(a) and hApoB mice; 37° C., 2 h; ELISA absorbance at 450 nm. On the procedure: The disclosure used a double antibody ELISA method to measure the efficiency of Apo(a) and ApoB protein assembly. The antibodies were ApoB-Capture antibody (Mabtech) and Apo(a)-Detector antibody (Abcam); the test samples were plasma from human transgenic hApo(a) and hApoB mice and were diluted 500-fold before use.
Experimental steps: Equal amounts of Apo(a) and ApoB serum were mixed with a serially diluted test compound (highest concentration at 100 nM, serially diluted 3-fold). The mixture was incubated in a 37° C. incubator for 2 h. The reaction was then terminated by adding 6-aminocaproic acid (EACA, purchased from Sigma) to a final concentration of 150 mM. The post-reaction solution was then added to an ELISA plate pre-coated with ApoB-Capture antibody, and the plate was incubated at room temperature for 2 h. Then the plate was washed 4 times with wash buffer; biotinylated Apo(a)-Detector antibody was added, and the plate was incubated at room temperature for 1 h. The plate was washed, and the chromogenic substrate 3,3′,5,5′-tetramethylbenzidine (TMB, purchased from Abcam) solution was added. After the plate was incubated at room temperature for 15 min, a reaction stop solution was added. Immediately after the solution was mixed well, the absorbance at 450 nm was measured using a microplate reader. Finally, data analysis and IC50 calculation were performed using GraphPad Prism 9 software.
The 0% inhibition rate for Apo(a) and ApoB protein assembly corresponds to the OD value where the compound concentration was 0 (1% DMSO); the 100% inhibition rate for Apo(a) and ApoB protein assembly corresponds to the OD value where only ApoB protein solution (a dilution of plasma from hApoB mice) was added.
In general terms: ELISA stands for enzyme-linked immunosorbent assay.

Data set [2] can be described thus: In vivo pharmacokinetic experiment on beagles. The following applies: intragastric, 10 mg/kg. On the procedure:
Beagles were used as test animals. After intragastric administration of the compound of the disclosure to beagles, plasma concentrations at different time points were determined by LC/MS/MS. The pharmacokinetic behavior of the compound of the disclosure in beagles was studied and its pharmacokinetic profile was evaluated.
Test Animals: 2 Healthy Male Beagles Aged 8-36 Months Per Group
Compound solution preparation: A certain amount of compound was weighed out and normal saline was added to form a 2 mg/mL colorless clear solution.
Administration: Beagles were fasted overnight and then intragastrically dosed. Reference 1 and compound 6 were both administered at a dose of 10 mg/kg.
Procedure: Beagles were intragastrically administered the compound of the disclosure. Blood samples of about 0.6 mL were collected from the peripheral vein at 0.25, 0.5, 1, 2, 4, 6, 8, and 24 h post-dose and placed into test tubes containing EDTA-K2. The blood samples were centrifuged at about 4° C. at 2000 rpm for 10 min to separate plasma, and the plasma was stored at −75° C.
(§1) Determination of the content of the test compound in beagle plasma at these different blood collection time points: Samples of 33 μL (30 μL of plasma and 3 μL of blank) of the beagle plasma collected at these time points post-dose were taken and added to 18 μL of a 6% perchloric acid solution. After 30 s of vortexing, the mixture was centrifuged at a temperature of 4° C. at 3900 rpm for 15 min, and 200 μL of alkalinized (the pH was adjusted to 10-11 with ammonia water) acetonitrile solution containing dexamethasone as an internal standard was then added to precipitate protein. After 30 s of vortexing, the mixture was centrifuged at 4° C. at 3900 rpm for 15 min. The supernatants of the plasma samples were taken and 3-fold diluted with water, and 8 μL of dilution was taken for LC/MS/MS analysis.
(§2) After plasma concentrations were determined by LC/MS/MS analysis, pharmacokinetic parameters were calculated using WinNonlin 6.1 software and a non-compartmental model method.

Data set [3] in a line: In vivo pharmacokinetic experiment on cynomolgus monkeys. The following applies: intragastric; for AUC / half-life / Cmax: both sexes, cynomolgus monkey, plasma, po; for AUC: read-out: Area under curve AUC; for half-life: read-out: Half-life T1/2 (converted); for Cmax: read-out: Maximum plasma concentration Cmax. As to the method: Cynomolgus monkeys were used as test animals. After intragastric administration of the compound of the disclosure to cynomolgus monkeys, plasma concentrations at different time points were determined by LC/MS/MS. The pharmacokinetic behavior of the compound of the disclosure in cynomolgus monkeys was studied and its pharmacokinetic profile was evaluated.
Test Animals: 2 Healthy Cynomolgus Monkeys Aged 24-36 Months Per Group (One Male and One Female)
Compound solution preparation: Certain amounts of compound were weighed out and normal saline was added to form 10 mg/mL (reference 1) and 3 mg/mL (compound 6) colorless clear solutions.
Administration: Cynomolgus monkeys were fasted overnight and then intragastrically dosed. Reference 1 was administered at a dose of 50 mg/kg, and compound 6 was administered at a dose of 15 mg/kg.
Procedure: Cynomolgus monkeys were intragastrically administered the compound of the disclosure. Blood samples of about 0.5 mL were collected from the peripheral vein at 0.25, 0.5, 1, 2, 4, 6, 8, and 24 h post-dose and placed into test tubes containing EDTA-K2. The blood samples were centrifuged at about 4° C. at 2000 rpm for 10 min to separate plasma, and the plasma was stored at −75° C.
as §1, with “cynomolgus monkey” for “beagle”
as §2

Data set [4] is described as follows: High-dose single-dose tolerance experiment on mice. The conditions noted are these: for body weight trend of the mice: 7 d after high-dose (1000 mg/kg) administration, conclusion in words; for Mouse body weight, Day 0 / Mouse body weight, Day 3 / Mouse body weight, Day 5 / Mouse body weight, Day 7: male C57/6J mice, single oral gavage 1000 mg/kg, mean. The data set is classed as in vivo, C57/6J mice. As to the method: C57/6J mice were used as test animals and administered a high dose of the compound of the disclosure by oral gavage. Clinical observations were carried out on the mice, and the safety of the compound of the disclosure was evaluated.
Experimental method: 8 male C57/6J mice were numbered 1-8 and weighed. The mice were fasted for 4 h before the experiment and weighed after the fast (0 h). Six mice with body weights closer to the average were selected and divided into 2 groups of 3.
The first group (G1) was administered reference 1, and the second group (G2) was administered the compound of the disclosure, Example 6. In both groups G1 and G2, the compounds were administrated by oral gavage at a dose of 1000 mg/kg, with normal saline as a vehicle. Clinical observations were carried out on the mice in the experimental group at 15 min, 30 min, 1 h, 2 h, 4 h, 6 h, and 24 h post-dose, and both groups were given food at 2 h post-dose.

The IC50 is the concentration at which inhibition is half-maximal. Low values mean greater potency, high ones weaker potency. What is called AUC is the area under the concentration-time curve, a measure of exposure.

Where a name gives a salt, the structure may show the parent alone.

Apo(a) and ApoB protein assembly, sequence (P08519 20-2040): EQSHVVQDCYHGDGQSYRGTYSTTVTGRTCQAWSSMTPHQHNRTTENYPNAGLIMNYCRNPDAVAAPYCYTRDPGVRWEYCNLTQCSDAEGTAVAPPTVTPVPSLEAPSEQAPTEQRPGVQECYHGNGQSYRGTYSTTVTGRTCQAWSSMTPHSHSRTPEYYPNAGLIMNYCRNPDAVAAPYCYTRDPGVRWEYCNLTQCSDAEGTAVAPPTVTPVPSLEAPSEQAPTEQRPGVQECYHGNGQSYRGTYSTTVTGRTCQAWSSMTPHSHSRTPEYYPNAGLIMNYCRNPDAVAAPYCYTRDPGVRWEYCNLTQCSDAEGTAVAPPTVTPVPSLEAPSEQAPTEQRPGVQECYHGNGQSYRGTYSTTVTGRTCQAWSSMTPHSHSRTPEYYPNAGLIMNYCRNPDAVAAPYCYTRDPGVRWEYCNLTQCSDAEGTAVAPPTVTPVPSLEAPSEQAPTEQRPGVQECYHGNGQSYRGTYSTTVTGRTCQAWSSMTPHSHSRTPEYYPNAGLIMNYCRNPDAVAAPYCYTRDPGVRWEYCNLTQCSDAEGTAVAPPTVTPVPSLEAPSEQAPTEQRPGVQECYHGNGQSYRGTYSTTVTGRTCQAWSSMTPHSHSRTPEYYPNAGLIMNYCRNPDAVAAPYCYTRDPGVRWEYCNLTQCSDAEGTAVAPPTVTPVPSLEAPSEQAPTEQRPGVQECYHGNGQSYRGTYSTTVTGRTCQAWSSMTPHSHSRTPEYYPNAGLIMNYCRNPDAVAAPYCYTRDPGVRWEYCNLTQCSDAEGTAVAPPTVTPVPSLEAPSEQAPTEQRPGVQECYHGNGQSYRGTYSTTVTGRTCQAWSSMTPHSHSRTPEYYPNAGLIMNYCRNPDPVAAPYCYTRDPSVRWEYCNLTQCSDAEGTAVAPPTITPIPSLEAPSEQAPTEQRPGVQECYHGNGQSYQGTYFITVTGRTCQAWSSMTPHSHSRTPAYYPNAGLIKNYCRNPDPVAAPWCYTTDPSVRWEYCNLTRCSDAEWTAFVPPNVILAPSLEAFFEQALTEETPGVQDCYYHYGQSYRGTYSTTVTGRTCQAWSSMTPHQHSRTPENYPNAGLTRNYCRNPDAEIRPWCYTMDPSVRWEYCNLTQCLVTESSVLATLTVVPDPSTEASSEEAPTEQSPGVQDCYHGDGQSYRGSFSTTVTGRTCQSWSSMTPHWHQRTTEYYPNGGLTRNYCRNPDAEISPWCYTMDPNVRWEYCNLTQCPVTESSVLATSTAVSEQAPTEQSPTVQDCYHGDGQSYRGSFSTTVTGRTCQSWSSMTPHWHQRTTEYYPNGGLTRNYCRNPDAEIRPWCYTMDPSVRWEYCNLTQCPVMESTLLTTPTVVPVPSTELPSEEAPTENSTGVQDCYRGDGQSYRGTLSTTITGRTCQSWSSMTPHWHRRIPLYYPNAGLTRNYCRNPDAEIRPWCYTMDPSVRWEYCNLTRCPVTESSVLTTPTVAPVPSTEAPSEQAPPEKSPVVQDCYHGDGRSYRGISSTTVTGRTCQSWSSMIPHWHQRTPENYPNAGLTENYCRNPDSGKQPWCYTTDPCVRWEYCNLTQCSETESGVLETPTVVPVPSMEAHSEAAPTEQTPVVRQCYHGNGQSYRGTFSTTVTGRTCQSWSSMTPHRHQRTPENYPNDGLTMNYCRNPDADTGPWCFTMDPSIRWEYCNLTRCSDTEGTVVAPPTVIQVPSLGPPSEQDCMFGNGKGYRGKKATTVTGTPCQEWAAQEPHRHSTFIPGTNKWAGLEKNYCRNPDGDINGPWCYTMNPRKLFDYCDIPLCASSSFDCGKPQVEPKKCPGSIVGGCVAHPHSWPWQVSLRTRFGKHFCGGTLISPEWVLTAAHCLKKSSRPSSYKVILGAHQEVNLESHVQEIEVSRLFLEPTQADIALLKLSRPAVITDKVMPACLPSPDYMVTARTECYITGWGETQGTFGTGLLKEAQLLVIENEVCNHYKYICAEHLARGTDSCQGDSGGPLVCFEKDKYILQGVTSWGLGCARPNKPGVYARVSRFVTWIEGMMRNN

As for `O=C(O)[C@@H](Cc1cccc(CN(CCOc2cccc(C[C@H](C(=O)O)[C@H]3CCNC3)c2)Cc2cccc(C[C@H](C(=O)O)[C@H]3CCNC3)c2)c1)[C@H]1CCNC1` [Compound 6, (2S)-3-(3-{[(2-{3-[(2S)-2-Carboxy-2-[(3R)-pyrrolidin-3-yl]ethyl]phenoxy}ethyl)({3-[(2S)-2-carboxy-2-[(3R)-pyrrolidin-3-yl]ethyl]phenyl}methyl)amino]methyl}phenyl)-2-[(3R)-pyrrolidin-3-yl]propanoic acid tetrahydrochloride], in data set [1], the IC50 was determined as 410 pM. In data set [2] (conclusion in words), the “oral absorption compared with reference 1” value is “better”. For the same molecule, in data set [3] (15 mg/kg), the AUC was 33100 ng·h/mL, the half-life is 16.6 h, the Cmax came out at 2370 ng/mL and the Unit-dose area under curve AUC/D was 2200 ng·h/mL per mg/kg. Moreover, in data set [3] (compound 6 15 mg/kg vs reference 1 50 mg/kg), the “plasma exposure relative to reference 1” value is roughly 5 times. For the same molecule, in data set [3] (conclusion in words), the “oral absorption compared with reference 1” value is reported as “better”. In addition, in data set [4], the “body weight trend of the mice” value is listed as “remained unchanged or even increased”; the “Mouse body weight, Day 0” value is listed as 25.83 g; the “Mouse body weight, Day 3” value was 26.93 g; the “Mouse body weight, Day 5” value is given as 26.70 g. Besides, the “Mouse body weight, Day 7” value in data set [4] was determined as 26.67 g.
`O=C(O)[C@@H](Cc1cccc(CN(Cc2cccc(C[C@H](C(=O)O)[C@H]3CCNC3)c2)Cc2cccc(C[C@H](C(=O)O)[C@H]3CCNC3)c2)c1)[C@H]1CCNC1` [Reference 1, reference compound]: the AUC in data set [2] (male, beagle, dog, plasma, po, read-out: Area under curve AUC) came out at 23000 ng·h/mL. Also, in data set [2] (male, beagle, dog, plasma, po, read-out: Half-life T1/2 (converted)), the half-life was 20.7 h. The Cmax in data set [2] (male, beagle, dog, plasma, po, read-out: Maximum plasma concentration Cmax) worked out at 1630 ng/mL. Moreover, in data set [3] (50 mg/kg), the AUC amounted to 22200 ng·h/mL, the half-life was 17.7 h, the Cmax came to 2190 ng/mL and the Unit-dose area under curve AUC/D was 443 ng·h/mL per mg/kg. Also, in data set [4], the “body weight trend of the mice” value was “significant downward trend”; the “Mouse body weight, Day 0” value turned out to be 25.87 g; the “Mouse body weight, Day 3” value is reported as 25.70 g; the “Mouse body weight, Day 5” value is 25.10 g. Further, in data set [4], the “Mouse body weight, Day 7” value is 24.53 g.
